According to PubChem BioAssay (NCI):
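48-hour exposure; five concentrations; linearly interpolated endpoints. Abbreviation: GI50, concentration required for 50% inhibition of growth. Definition used: TGI = concentration required for complete inhibition of growth.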

Legend:
Assay in all cases: DTP human tumour cell line panel, 48 h
[1] = tested on: 786-0 renal
[2] = tested on: CCRF-CEM leukemia
[3] = tested on: DU-145 prostate
[4] = tested on: EKVX NSCLC
[5] = tested on: NCI-H460 lung
[6] = tested on: RXF 393 renal
[7] = tested on: SK-MEL-2 melanoma
[8] = tested on: SR leukemia
[9] = tested on: T-47D breast
[10] = tested on: UO-31 renal

SMILES | GI50 [1] [µM] | TGI [1] [µM] | GI50 [2] [µM] | TGI [2] [µM] | GI50 [3] [µM] | TGI [3] [µM] | GI50 [4] [µM] | TGI [4] [µM] | GI50 [5] [µM] | TGI [5] [µM] | GI50 [6] [µM] | TGI [6] [µM] | GI50 [7] [µM] | TGI [7] [µM] | GI50 [8] [µM] | TGI [8] [µM] | GI50 [9] [µM] | TGI [9] [µM] | GI50 [10] [µM] | TGI [10] [µM]
O=C1/C(=C/c2ccc(O)cc2)CSc2ccc(Cl)cc21 | 17.2 | 49.8 | 0.58 | > 100 | 12.4 | 27.2 | 16.4 | 32.4 | 17.7 | 39.2 | 17.9 | 37.7 | 19.1 | 51.8 | 2.14 | > 100 | 8.86 | 22.7 | 12.4 | 29.1
CCc1oc2ccccc2c1C(=O)c1cc(I)c(O)c(I)c1 | 3.76 | 15.3 | 2.05 | 15.4 | 2.37 | 7.4 | 3.59 | 15.4 | 2.63 | 8.94 | 2.98 | 16 | 7.42 | 28 | 0.568 | 17.9 | 4.56 | 20.8 | 1.82 | 10.5
C/C(=N\Nc1ccc(Cl)cn1)c1ccccn1 | 0.206 | > 33.9 | 0.0273 | > 100 | 0.161 | > 100 | 0.0516 | > 83.7 | 0.268 | 11.2 | 0.188 | 24.9 | 0.72 | > 100 | 0.0556 | > 40.9 | 0.0372 | > 38.8 | 0.0344 | 1.86
C/C=C(\C)CC/C=C/CO[Si](C)(C)C(C)(C)C | – | > 100 | – | 49.6 | – | > 100 | – | > 100 | – | > 100 | – | > 100 | – | > 100 | – | 56.3 | – | > 100 | – | > 100
Cc1ccc(C(=O)Nc2ccc(CN3CCN(C)CC3)c(C(F)(F)F)c2)cc1C#Cc1cnc(N)c2ccccc12 | 0.435 | 1.08 | 0.622 | 3.04 | 0.167 | 0.861 | 0.514 | 1.28 | 0.32 | 1.08 | 0.285 | 1.06 | 0.367 | 1.55 | 0.134 | 2.66 | 0.861 | 2.3 | 0.241 | 0.886
